Data taken from US8309546B2, “Morpholinopurine derivatives” (Daiichi Sankyo Company, Limited, priority 2008, dated 2012).

Tests used:
[1] = molecular target: T1, human mTOR (His-tagged mTOR (1362C)) (Homo sapiens, UniProt P42345); assay: mTOR kinase activity inhibition assay; type: biochemical; conditions: HTRF, read-out: IC50 against mTOR
T1 construct: the 1362 to 2549 amino acid portion on the C terminus side of human mTOR; His tag (N); made in house
Summary of the method: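 Crude His-tagged mTOR (aa 1362–2549) from stable HEK293 cells, with 8 μg/ml biotinylated peptide in 50 mM HEPES pH 7.5, 20 mM MnCl2; compound diluted in 20 μM ATP solution, reaction 3 h at room temperature. Phospho-peptide detected by HTRF (anti-phospho-S6K Thr389 cryptate/streptavidin-XL665, overnight at 4°C), 665/620 nm ratio. IC50 derived from curve fit of % inhibition.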

[2] = tested on: human ovary cancer cell strain IGROV1; assay: Cell growth inhibition test (MTT), IGROV1; type: cell-based; conditions: IGROV-1, 72 h, IGROV1, 3 days culture, read-out: concentration exhibiting anti-cell effect (GI50)
Summary of the method: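 AN3CA, IGROV1 and HT29 seeded at 5000, 1000 and 5000 cells/well; compound added next day, 3 days at 37° C, 5% CO2. MTT 4 h, formazan in DMSO read at 540 nm. GI50 is the concentration giving 50% growth rate (T/C %, corrected for day-of-addition absorbance), interpolated between two bracketing concentrations.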

T1 sequence (P42345 1362-2549): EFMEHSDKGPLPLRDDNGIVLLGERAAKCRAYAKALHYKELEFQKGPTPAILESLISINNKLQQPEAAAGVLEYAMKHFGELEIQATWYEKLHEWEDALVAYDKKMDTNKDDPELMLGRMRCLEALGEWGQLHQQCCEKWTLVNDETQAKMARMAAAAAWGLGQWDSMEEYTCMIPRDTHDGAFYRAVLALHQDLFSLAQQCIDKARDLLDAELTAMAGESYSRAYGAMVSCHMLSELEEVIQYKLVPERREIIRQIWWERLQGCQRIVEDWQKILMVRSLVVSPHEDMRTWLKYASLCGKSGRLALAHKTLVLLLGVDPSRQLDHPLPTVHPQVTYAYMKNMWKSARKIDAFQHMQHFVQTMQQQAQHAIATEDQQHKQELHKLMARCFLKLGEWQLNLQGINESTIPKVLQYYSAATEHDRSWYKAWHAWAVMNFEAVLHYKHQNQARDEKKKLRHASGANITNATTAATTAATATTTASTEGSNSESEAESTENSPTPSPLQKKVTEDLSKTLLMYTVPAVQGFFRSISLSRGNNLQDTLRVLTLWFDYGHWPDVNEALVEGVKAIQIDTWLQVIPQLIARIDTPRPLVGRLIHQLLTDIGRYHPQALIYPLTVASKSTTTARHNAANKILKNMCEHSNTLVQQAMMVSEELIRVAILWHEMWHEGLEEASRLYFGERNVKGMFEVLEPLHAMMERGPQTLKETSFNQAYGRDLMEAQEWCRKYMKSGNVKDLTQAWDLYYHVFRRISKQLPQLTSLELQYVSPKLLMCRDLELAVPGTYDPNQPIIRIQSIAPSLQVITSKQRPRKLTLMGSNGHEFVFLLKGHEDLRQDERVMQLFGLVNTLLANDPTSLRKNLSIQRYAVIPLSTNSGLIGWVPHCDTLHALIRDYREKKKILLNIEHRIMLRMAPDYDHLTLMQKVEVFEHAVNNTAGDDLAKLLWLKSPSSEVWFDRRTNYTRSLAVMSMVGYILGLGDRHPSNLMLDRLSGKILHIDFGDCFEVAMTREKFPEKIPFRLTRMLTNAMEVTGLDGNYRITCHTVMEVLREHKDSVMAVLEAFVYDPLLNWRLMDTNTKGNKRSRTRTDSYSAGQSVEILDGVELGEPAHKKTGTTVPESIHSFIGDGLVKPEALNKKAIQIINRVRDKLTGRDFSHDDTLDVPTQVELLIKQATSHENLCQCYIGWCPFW

IC50 [1]	GI50 [2]	Structure (SMILES)
10 to 30 nM	≤ 5000 nM	CC(C)Cn1c(N2CCN(S(C)(=O)=O)CC2)nc2c(N3CCOCC3)nc(-c3cnc(N)nc3)nc21 [Example 1, 5-{9-Isobutyl-8-[4-(methylsulfonyl)piperazin-1-yl]-6-morpholin-4-yl-9H-purin-2-yl}pyrimidin-2-amine]
10 to 30 nM	≤ 5000 nM	CC(=O)N1CCN(c2nc3c(N4CCOCC4)nc(-c4cnc(N)nc4)nc3n2CC(C)C)CC1 [Example 2, 5-[8-(4-Acetylpiperazin-1-yl)-9-isobutyl-6-morpholin-4-yl-9H-purin-2-yl]pyrimidin-2-amine]
10 to 30 nM	≤ 5000 nM	CS(=O)(=O)N1CCN(c2nc3c(N4CCOCC4)nc(-c4cnc(N)nc4)nc3n2CC2CC2)CC1 [Example 3, 5-{9-(Cyclopropylmethyl)-8-[4-(methylsulfonyl)piperazin-1-yl]-6-morpholin-4-yl-9H-purin-2-yl}pyrimidin-2-amine]
100 to 500 nM	≤ 5000 nM	Cc1nc(N)ncc1-c1nc(N2CCOCC2)c2nc(N3CCN(S(C)(=O)=O)CC3)n(CC3CC3)c2n1 [Example 6, 5-{9-(Cyclopropylmethyl)-8-[4-(methylsulfonyl)piperazin-1-yl]-6-morpholin-4-yl-9H-purin-2-yl}-4-methylpyrimidin-2-amine]
< 10 nM	≤ 5000 nM	CS(=O)(=O)N1CCN(c2nc3c(N4CCOCC4)nc(-c4cnc(N)nc4)nc3n2CC(F)(F)F)CC1 [Example 8, 5-{8-[4-(Methylsulfonyl)piperazin-1-yl]-6-morpholin-4-yl-9-(2,2,2-trifluoroethyl)-9H-purin-2-yl}pyrimidin-2-amine]
10 to 30 nM	≤ 5000 nM	CC(=O)N1CCN(c2nc3c(N4CCOCC4)nc(-c4cnc(N)nc4)nc3n2CC2CC2)CC1 [Example 10, 5-[8-(4-Acetylpiperazin-1-yl)-9-(cyclopropylmethyl)-6-morpholin-4-yl-9H-purin-2-yl]pyrimidin-2-amine]
< 10 nM	≤ 5000 nM	CNc1ncc(-c2nc(N3CCOCC3)c3nc(N4CCN(S(C)(=O)=O)CC4)n(CC(F)(F)F)c3n2)cn1 [Example 11, N-Methyl-5-{8-[4-(methylsulfonyl)piperazin-1-yl]-6-morpholin-4-yl-9-(2,2,2-trifluoroethyl)-9H-purin-2-yl}pyrimidin-2-amine]
10 to 30 nM	≤ 5000 nM	C[C@@H]1CN(c2nc3c(N4CCOCC4)nc(-c4cnc(N)nc4)nc3n2CC(F)(F)F)C[C@H](C)N1 [Example 14, 5-[8-(cis-3,5-Dimethylpiperazin-1-yl)-6-morpholin-4-yl-9-(2,2,2-trifluoroethyl)-9H-purin-2-yl]pyrimidin-2-amine]
10 to 30 nM	≤ 5000 nM	CC(C)Cn1c(N2CCN(S(C)(=O)=O)[C@@H](C)C2)nc2c(N3CCOCC3)nc(-c3cnc(N)nc3)nc21 [Example 53, 5-{9-Isobutyl-8-[(3S)-3-methyl-4-(methylsulfonyl)piperazin-1-yl]-6-morpholin-4-yl-9H-purin-2-yl}pyrimidin-2-amine]
30 to 100 nM	≤ 5000 nM	CC(C)Cn1c(N2CCN(S(C)(=O)=O)[C@H](C)C2)nc2c(N3CCOCC3)nc(-c3cnc(N)nc3)nc21 [Example 54, 5-{9-Isobutyl-8-[(3R)-3-methyl-4-(methylsulfonyl)piperazin-1-yl]-6-morpholin-4-yl-9H-purin-2-yl}pyrimidin-2-amine]
30 to 100 nM	≤ 5000 nM	CC(C)Cn1c(N2CCN(C(=O)CN(C)C)CC2)nc2c(N3CCOCC3)nc(-c3cnc(N)nc3)nc21 [Example 55, 5-(8-{4-[(Dimethylamino)acetyl]piperazin-1-yl}-9-isobutyl-6-morpholin-4-yl-9H-purin-2-yl)pyrimidin-2-amine]
< 10 nM	≤ 5000 nM	CS(=O)(=O)C1CCN(c2nc3c(N4CCOCC4)nc(-c4cnc(N)nc4)nc3n2CC(F)(F)F)CC1 [Example 57, 5-{8-[4-(Methylsulfonyl)piperidin-1-yl]-6-morpholin-4-yl-9-(2,2,2-trifluoroethyl)-9H-purin-2-yl}pyrimidin-2-amine]
< 10 nM	≤ 5000 nM	CC(=O)N1CCN(c2nc3c(N4CCOCC4)nc(-c4cnc(N)nc4)nc3n2CC(F)(F)F)C[C@H]1C [Example 60, 5-{8-[(3R)-4-Acetyl-3-methylpiperazin-1-yl]-6-morpholin-4-yl-9-(2,2,2-trifluoroethyl)-9H-purin-2-yl}pyrimidin-2-amine]
10 to 30 nM	≤ 5000 nM	C[C@@H]1CN(c2nc3c(N4CCOCC4)nc(-c4cnc(N)nc4)nc3n2CC(F)(F)F)CCN1S(C)(=O)=O [Example 61, 5-{8-[(3R)-3-Methyl-4-(methylsulfonyl)piperazin-1-yl]-6-morpholin-4-yl-9-(2,2,2-trifluoroethyl)-9H-purin-2-yl}pyrimidin-2-amine]
< 10 nM	≤ 5000 nM	C[C@H]1CN(c2nc3c(N4CCOCC4)nc(-c4cnc(N)nc4)nc3n2CC(F)(F)F)CCN1S(C)(=O)=O [Example 62, 5-{8-[(3S)-3-Methyl-4-(methylsulfonyl)piperazin-1-yl]-6-morpholin-4-yl-9-(2,2,2-trifluoroethyl)-9H-purin-2-yl}pyrimidin-2-amine]
< 10 nM	≤ 5000 nM	CC(=O)N1CCN(c2nc3c(N4CCOCC4)nc(-c4cnc(N)nc4)nc3n2CC(F)(F)F)C[C@@H]1C [Example 63, 5-{8-[(3S)-4-Acetyl-3-methylpiperazin-1-yl]-6-morpholin-4-yl-9-(2,2,2-trifluoroethyl)-9H-purin-2-yl}pyrimidin-2-amine]
< 10 nM	≤ 5000 nM	CS(=O)(=O)N1CCN(c2nc3c(N4CCOCC4)nc(-c4cnc(N)nc4)nc3n2CC(F)F)CC1 [Example 64, 5-{9-(2,2-Difluoro-ethyl)-8-[4-(methylsulfonyl)piperazin-1-yl]-6-morpholin-4-yl-9H-purin-2-yl}pyrimidin-2-amine]
< 10 nM	≤ 5000 nM	CC(=O)C(=O)N1CCN(c2nc3c(N4CCOCC4)nc(-c4cnc(N)nc4)nc3n2CC(F)(F)F)CC1 [Example 65, 1-{4-[2-(2-Aminopyrimidin-5-yl)-6-morpholin-4-yl-9-(2,2,2-trifluoroethyl)-9H-purin-8-yl]piperazin-1-yl}-1-oxoacetone]
< 10 nM	≤ 5000 nM	CN(C)C(=O)C(=O)N1CCN(c2nc3c(N4CCOCC4)nc(-c4cnc(N)nc4)nc3n2CC(F)(F)F)CC1 [Example 66, 2-{4-[2-(2-Aminopyrimidin-5-yl)-6-morpholin-4-yl-9-(2,2,2-trifluoroethyl)-9H-purin-8-yl]piperazin-1-yl}-N,N-dimethyl-2-oxoacetamide]
< 10 nM	≤ 5000 nM	Nc1ncc(-c2nc(N3CCOCC3)c3nc(N4CCN(C(=O)CO)CC4)n(CC(F)(F)F)c3n2)cn1 [Example 67, 2-{4-[2-(2-Aminopyrimidin-5-yl)-6-morpholin-4-yl-9-(2,2,2-trifluoroethyl)-9H-purin-8-yl]piperazin-1-yl}-2-oxoethanol]
< 10 nM	≤ 5000 nM	C[C@H](O)C(=O)N1CCN(c2nc3c(N4CCOCC4)nc(-c4cnc(N)nc4)nc3n2CC(F)(F)F)CC1 [Example 68, (2S)-1-{4-[2-(2-Aminopyrimidin-5-yl)-6-morpholin-4-yl-9-(2,2,2-trifluoroethyl)-9H-purin-8-yl]piperazin-1-yl}-1-oxopropan-2-ol]
< 10 nM	≤ 5000 nM	C[C@H](O)CC(=O)N1CCN(c2nc3c(N4CCOCC4)nc(-c4cnc(N)nc4)nc3n2CC(F)(F)F)CC1 [Example 69, (2S)-4-{4-[2-(2-Aminopyrimidin-5-yl)-6-morpholin-4-yl-9-(2,2,2-trifluoroethyl)-9H-purin-8-yl]piperazin-1-yl}-4-oxobutan-2-ol]
< 10 nM	≤ 5000 nM	C[C@@H](O)CC(=O)N1CCN(c2nc3c(N4CCOCC4)nc(-c4cnc(N)nc4)nc3n2CC(F)(F)F)CC1 [Example 70, (2R)-4-{4-[2-(2-Aminopyrimidin-5-yl)-6-morpholin-4-yl-9-(2,2,2-trifluoroethyl)-9H-purin-8-yl]piperazin-1-yl}-4-oxobutan-2-ol]
< 10 nM	≤ 5000 nM	Nc1ncc(-c2nc(N3CCOCC3)c3nc(N4CCN(C=O)CC4)n(CC(F)(F)F)c3n2)cn1 [Example 71, 4-[2-(2-Aminopyrimidin-5-yl)-6-morpholin-4-yl-9-(2,2,2-trifluoroethyl)-9H-purin-8-yl]piperazine-1-carboaldehyde]
< 10 nM	≤ 5000 nM	CC[C@H]1CN(c2nc3c(N4CCOCC4)nc(-c4cnc(N)nc4)nc3n2CC(F)(F)F)CCN1C(C)=O [Example 75, 5-{8-[(3S)-4-Acetyl-3-ethylpiperazin-1-yl]-6-morpholin-4-yl-9-(2,2,2-trifluoroethyl)-9H-purin-2-yl}pyrimidin-2-amine]
< 10 nM	≤ 5000 nM	CC[C@H]1CN(c2nc3c(N4CCOCC4)nc(-c4cnc(N)nc4)nc3n2CC(F)(F)F)CCN1S(C)(=O)=O [Example 76, 5-{8-[(3S)-3-Ethyl-4-(methylsulfonyl)piperazin-1-yl]-6-morpholin-4-yl-9-(2,2,2-trifluoroethyl)-9H-purin-2-yl}pyrimidin-2-amine]
10 to 30 nM	≤ 5000 nM	CC[C@H]1CN(c2nc3c(N4CCOCC4)nc(-c4cnc(N)nc4)nc3n2CC(F)(F)F)CCN1C(=O)[C@H](C)O [Example 77, (2S)-1-{(2S)-4-[2-(2-Aminopyrimidin-5-yl)-6-morpholin-4-yl-9-(2,2,2-trifluoroethyl)-9H-purin-8-yl]-2-ethylpiperazin-1-yl}-1-oxopropan-2-ol]
